{
  "source": "patent US8063103B2",
  "about": "“Polymorphs of acyl sulfonamides” (Roche Palo Alto LLC, priority 2008, dated 2011)",
  "description": "Amorphous state of Ib can be prepared by dissolving Form VIII in 82% t-butanol/18% water at a drug concentration of ˜6 mg/mL. This solution was lyophilized overnight (˜18 hours) to form the amorphous material.",
  "note": "Structures can show the parent of a compound that is named as a salt. Where two headings read alike, the source gives them in different places.",
  "data": [
    {"smiles": "CCC(=O)NS(=O)(=O)c1ccc(NC(=O)Cc2ccc(Br)c(Oc3cc(Cl)cc(C#N)c3)c2F)c(Cl)c1", "note": "[amorphous material, 2-[4-Bromo-3-(3-chloro-5-cyano-phenoxy)-2-fluoro-phenyl]-N-(2-chloro-4-propionylsulfamoyl-phenyl)-acetamide, sodium salt]", "values": [
      {"measurement": "stability of amorphous material on storage", "setting": "25C/60 RH, at least one week", "value": "stable at 25C/60 RH for at least one week"},
      {"measurement": "stability of amorphous material on storage", "setting": "40C/75 RH", "value": "not at 40C/75 RH"}
    ]}
  ]
}
